The values that follow come from patent US3940382A, “1,2'-Di-N-substituted kanamycin B compounds” (Zaidan Hojin Biseibutsu Kagaku Kenkyu Kai, priority 1973, dated 1976).

Molecules are shown by their SMILES. In brackets after ≈: the same amount, converted by molar mass.

Experiment [1] has as its system drug-resistant bacteria. Particulars: cited from earlier work.
The test system of experiment [2] is gram-negative and gram-positive bacteria sensitive to the kanamycins. Particulars: cited from earlier work.
Experiment [3] relates to kanamycin-resistant strains. Particulars: strains phosphorylating the 3'-hydroxyl group of kanamycins; cited from earlier work.
In experiment [4] the test system is Escherichia coli JR66/W677. Particulars: strain adenylylating the 2"-hydroxyl group; cited from earlier work.
For experiment [5], the system named is Staphylococcus aureus Smith. As to the kind of experiment: MIC, serial dilution on nutrient agar. Particulars: Staphylococcus aureus, 18 h, read-out: Minimum Inhibitory Concentrations. Type of experiment: cell-based.
Experiment [6] deals with Staphylococcus aureus FDA 209P. As to the kind of experiment: MIC, serial dilution on nutrient agar. It counts as cell-based. Particulars: Staphylococcus aureus, FDA209P, 18 h, read-out: Minimum Inhibitory Concentrations.
Experiment [7] relates to Staphylococcus aureus Terejima. Put plainly: MIC, serial dilution on nutrient agar. Particulars: Staphylococcus aureus, 18 h, read-out: Minimum Inhibitory Concentrations. Type of experiment: cell-based.
The subject of experiment [8] is Sarcina lutea PCI 1001. Put plainly: MIC, serial dilution on nutrient agar. It counts as cell-based. Particulars: Micrococcus luteus, PCI1001, 18 h, read-out: Minimum Inhibitory Concentrations.
Experiment [9] deals with Bacillus anthracis. As to the kind of experiment: microbe, parasite or virus in culture. Type of experiment: cell-based. Particulars: 18 h, read-out: Minimum Inhibitory Concentrations.
Experiment [10] relates to Bacillus subtilis PCI 219. As to the kind of experiment: MIC, serial dilution on nutrient agar. Type of experiment: cell-based. Particulars: Bacillus subtilis, PCI219, 18 h, read-out: Minimum Inhibitory Concentrations.
The subject of experiment [11] is Bacillus subtilis NRRL B-558. Put plainly: MIC, serial dilution on nutrient agar. It counts as cell-based. Particulars: Bacillus subtilis, NRRLB558, 18 h, read-out: Minimum Inhibitory Concentrations.
Experiment [12] concerns Bacillus cereus ATCC 10702. Put plainly: MIC, serial dilution on nutrient agar. It counts as cell-based. Particulars: Bacillus cereus, ATCC10702, 18 h, read-out: Minimum Inhibitory Concentrations.
Experiment [13] concerns Corynebacterium bovis 1810. Put plainly: MIC, serial dilution on nutrient agar. It counts as cell-based. Particulars: Corynebacterium bovis, 1810, 18 h, read-out: Minimum Inhibitory Concentrations.
The subject of experiment [14] is Mycobacterium smegmatis ATCC 607. As to the kind of experiment: MIC, serial dilution on nutrient agar. It counts as cell-based. Particulars: Mycolicibacterium smegmatis, ATCC607, 18 h, read-out: Minimum Inhibitory Concentrations.
The test system of experiment [15] is Shigella dysenteriae JS 11910. As to the kind of experiment: MIC, serial dilution on nutrient agar. It counts as cell-based. Particulars: JS11910, 18 h, read-out: Minimum Inhibitory Concentrations.
For experiment [16], the system named is Escherichia coli K-12 ML 1630. As to the kind of experiment: MIC, serial dilution on nutrient agar. Type of experiment: cell-based. Particulars: K12ML1630, 37°C, 18 hours, read-out: Minimum Inhibitory Concentrations. On the procedure:
(§1) The minimum inhibitory concentrations (mcg/ml) of 1,2'-di-N-[(S)-4-amino-2-hydroxybutyryl]-kanamycin B (abbreviated as 1,2'-AHB-KMB), 1,2'-di-N-[(S)-4-amino-2-hydroxybutyryl]-3',4'-dideoxykanamycin B (abbreviated as 1,2'-AHB-DKB), 1,2'-di-N-DL-isoseryl-3',4'-dideoxykanamycin B (abbreviated as 1,2'-IS-DKB) and 1,2'-di-N-DL-isoseryl-kanamycin B (abbreviated as 1,2'-IS-KMB) against various microorganisms were determined according to serial dilution method using nutrient agar medium at 37°C, the estimation being effected after 18 hours incubation. For comparison, the minimum inhibitory concentrations of kanamycin B (abbreviated as KMB) and 3',4'-dideoxykanamycin B (abbreviated as DKB) were also determined in the same manner as mentioned above.

Experiment [17] concerns Shigella flexneri 4b JS 11811. As to the kind of experiment: MIC, serial dilution on nutrient agar. Type of experiment: cell-based. Particulars: 4BJS11811, 37°C, 18 hours, read-out: Minimum Inhibitory Concentrations. On the procedure: as §1
Experiment [18] concerns Shigella sonnei JS 11746. Put plainly: MIC, serial dilution on nutrient agar. Type of experiment: cell-based. Particulars: JS11746, 37°C, 18 hours, read-out: Minimum Inhibitory Concentrations. On the procedure:
as §1

For experiment [19], the system named is Salmonella typhosa T-63. As to the kind of experiment: MIC, serial dilution on nutrient agar. Type of experiment: cell-based. Particulars: Salmonella enterica, 18 h, read-out: Minimum Inhibitory Concentrations.
Experiment [20] deals with Salmonella enteritidis 1891. Put plainly: MIC, serial dilution on nutrient agar. It counts as cell-based. Particulars: Salmonella enterica, ENTERITIDIS, 18 h, read-out: Minimum Inhibitory Concentrations.
Experiment [21] concerns Proteus vulgaris OX 19. As to the kind of experiment: MIC, serial dilution on nutrient agar. Type of experiment: cell-based. Particulars: Proteus vulgaris, OX19, 18 h, read-out: Minimum Inhibitory Concentrations.
Experiment [22] deals with Klebsiella pneumoniae PCI 602. Put plainly: MIC, serial dilution on nutrient agar. Type of experiment: cell-based. Particulars: Klebsiella pneumoniae, PCI602, 18 h, read-out: Minimum Inhibitory Concentrations.
For experiment [23], the system named is Klebsiella pneumoniae 22 -3038. Put plainly: MIC, serial dilution on nutrient agar. Type of experiment: cell-based. Particulars: Klebsiella pneumoniae, 223038, 18 h, read-out: Minimum Inhibitory Concentrations.
Experiment [24] relates to Escherichia coli NIHJ. As to the kind of experiment: MIC, serial dilution on nutrient agar. It counts as cell-based. Particulars: Escherichia coli, 18 h, read-out: Minimum Inhibitory Concentrations.
Experiment [25] relates to Escherichia coli K-12. As to the kind of experiment: MIC, serial dilution on nutrient agar. Particulars: Escherichia coli, K12, 18 h, read-out: Minimum Inhibitory Concentrations. It counts as cell-based.
Experiment [26] concerns Escherichia coli K-12 ML 1629. Put plainly: MIC, serial dilution on nutrient agar. It counts as cell-based. Particulars: Escherichia coli, K12ML1629, 18 h, read-out: Minimum Inhibitory Concentrations.
In experiment [27] the test system is Escherichia coli K-12 ML 1410. Put plainly: MIC, serial dilution on nutrient agar. It counts as cell-based. Particulars: Escherichia coli, K12ML1410, 18 h, read-out: Minimum Inhibitory Concentrations.
In experiment [28] the test system is Escherichia coli K-12 ML 1410 R81. Put plainly: MIC, serial dilution on nutrient agar. Type of experiment: cell-based. Particulars: 18 h, read-out: Minimum Inhibitory Concentrations.
The subject of experiment [29] is Escherichia coli LA290 R55. Put plainly: MIC, serial dilution on nutrient agar. Type of experiment: cell-based. Particulars: LA290R55, 18 h, read-out: Minimum Inhibitory Concentrations.
Experiment [30] has as its system Escherichia coli LA290 R56. Put plainly: MIC, serial dilution on nutrient agar. Particulars: LA290R56, 18 h, read-out: Minimum Inhibitory Concentrations. Type of experiment: cell-based.
In experiment [31] the test system is Escherichia coli LA290 R64. As to the kind of experiment: MIC, serial dilution on nutrient agar. Particulars: LA290R64, 18 h, read-out: Minimum Inhibitory Concentrations. Type of experiment: cell-based.
In experiment [32] the test system is Escherichia coli W677. Put plainly: MIC, serial dilution on nutrient agar. Type of experiment: cell-based. Particulars: Escherichia coli, W677, 18 h, read-out: Minimum Inhibitory Concentrations.
The test system of experiment [33] is Escherichia coli JR66/W677. As to the kind of experiment: MIC, serial dilution on nutrient agar. Particulars: Escherichia coli, JR66/W677, 18 h, read-out: Minimum Inhibitory Concentrations. It counts as cell-based.
The test system of experiment [34] is Pseudomonas aeruginosa A3. Put plainly: MIC, serial dilution on nutrient agar. It counts as cell-based. Particulars: Pseudomonas aeruginosa, A3, 18 h, read-out: Minimum Inhibitory Concentrations.
Experiment [35] has as its system Pseudomonas aeruginosa No.12. As to the kind of experiment: MIC, serial dilution on nutrient agar. Particulars: Pseudomonas aeruginosa, NO.12, 18 h, read-out: Minimum Inhibitory Concentrations. Type of experiment: cell-based.
Experiment [36] relates to Pseudomonas aeruginosa TI-13. As to the kind of experiment: MIC, serial dilution on nutrient agar. Type of experiment: cell-based. Particulars: Pseudomonas aeruginosa, TI13, 18 h, read-out: Minimum Inhibitory Concentrations.
Experiment [37] deals with Pseudomonas aeruginosa GN315. As to the kind of experiment: MIC, serial dilution on nutrient agar. Type of experiment: cell-based. Particulars: Pseudomonas aeruginosa, GN315, 18 h, read-out: Minimum Inhibitory Concentrations.
Experiment [38] deals with Pseudomonas aeruginosa 99. Put plainly: MIC, serial dilution on nutrient agar. It counts as cell-based. Particulars: Pseudomonas aeruginosa, 99, 18 h, read-out: Minimum Inhibitory Concentrations.

In the case of `NCC(O)C(=O)N[C@@H]1C[C@H](N)[C@@H](O[C@H]2O[C@H](CN)CC[C@H]2N)[C@H](O)[C@H]1O[C@H]1O[C@H](CO)[C@@H](O)[C@H](N)[C@H]1O` (stereo partly drawn) [1-N-isoseryl-3',4'-dideoxykanamycin B], the “antibacterial activity against the drug-resistant bacteria” value (“antibacterial activity” for short) in experiment [1] is on record as “effective”. The “effectiveness against bacteria sensitive to the kanamycins” value (shortened to “effectiveness against bacteria sensitive”) in [2] was “effective”.
Consider `NCC(O)C(=O)N[C@@H]1C[C@H](N)[C@@H](O[C@H]2O[C@H](CN)[C@@H](O)[C@H](O)[C@H]2O)[C@H](O)[C@H]1O[C@H]1O[C@H](CO)[C@@H](O)[C@H](N)[C@H]1O` (stereo partly drawn) [1-N-isoserylkanamycin], for which the “antibacterial activity” value in experiment [1] is given as “effective”. Moreover, in experiment [2], the “effectiveness against bacteria sensitive” value is given as “effective”.
`NCC(O)C(=O)N[C@@H]1C[C@H](N)[C@@H](O[C@H]2O[C@H](CN)[C@@H](O)[C@H](O)[C@H]2N)[C@H](O)[C@H]1O[C@H]1O[C@H](CO)[C@@H](O)[C@H](N)[C@H]1O` (stereo partly drawn) [1N-isoserylkanamycinB]: in [1], the “antibacterial activity” value is reported as “effective”. Besides, in experiment [2], the “effectiveness against bacteria sensitive” value is recorded as “effective”.
As for `NC[C@H]1O[C@H](O[C@H]2[C@H](O)[C@@H](O[C@H]3O[C@H](CO)[C@@H](O)[C@H](N)[C@H]3O)[C@H](N)C[C@@H]2N)[C@H](O)C[C@@H]1O` [3'-deoxykanamycin], in experiment [3], the “effectiveness against kanamycin-resistant strains” value was “actually effective”. Moreover, the “activity against kanamycin-resistant strains such as Escherichia coli JR66/W677” value in experiment [4] is “practically inactive”.
With `NC[C@H]1O[C@H](O[C@H]2[C@H](O)[C@@H](O[C@H]3O[C@H](CO)[C@@H](O)[C@H](N)[C@H]3O)[C@H](N)C[C@@H]2N)[C@H](N)[C@@H](O)[C@@H]1O` [KMB, kanamycin B], the MIC in [5] is 0.39 mg/L (≈ 0.807 µM); in experiment [6], < 0.2 mg/L; in experiment [7], < 0.2 mg/L; in [8] it was 1.56 mg/L (≈ 3.23 µM); in experiment [9], < 0.2 mg/L; in [10], < 0.2 mg/L. Also, the MIC was < 0.2 mg/L in experiment [11]; 0.78 mg/L (≈ 1.61 µM) in experiment [12]; 1.56 mg/L (≈ 3.23 µM) in experiment [13]; 0.78 mg/L (≈ 1.61 µM) in experiment [14]; 3.13 mg/L (≈ 6.47 µM) in experiment [15]; > 100 mg/L in [16]. Also, the MIC in experiment [17] was found to be 3.13 mg/L (≈ 6.47 µM); in experiment [18], 1.56 mg/L (≈ 3.23 µM); in [19], 0.2 mg/L (≈ 0.414 µM); in experiment [20] it was 1.56 mg/L (≈ 3.23 µM); in experiment [21], 0.78 mg/L (≈ 1.61 µM); in experiment [22], 0.78 mg/L (≈ 1.61 µM). In addition, the MIC is > 100 mg/L in experiment [23]; 0.78 mg/L (≈ 1.61 µM) in experiment [24]; 0.78 mg/L (≈ 1.61 µM) in experiment [25]; > 100 mg/L in [26]; 0.78 mg/L (≈ 1.61 µM) in experiment [27]; > 100 mg/L in experiment [28]. Also, the MIC was 12.5 mg/L (≈ 25.9 µM) in [29]; 3.13 mg/L (≈ 6.47 µM) in [30]; 3.13 mg/L (≈ 6.47 µM) in experiment [31]; 0.39 mg/L (≈ 0.807 µM) in [32]; > 100 mg/L in [33]; 50 mg/L (≈ 103 µM) in [34]. In addition, the MIC was 12.5 mg/L (≈ 25.9 µM) in experiment [35], 100 mg/L (≈ 207 µM) in [36], > 100 mg/L in experiment [37] and > 100 mg/L in [38].
